Experiment [1] deals with human CD40 transgenic mice. Description: Mouse T cell-dependent humoral immune response (TDAR) model. The class given is in vivo. As to conditions: 0.3 mpk BIW ip (IgG1 control 1 mg/kg per Table 15); serum ELISA. The method, then: On day 0 of the experiment, one of the mice in each group was subjected to blood collection followed by intraperitoneal injection. On day 1, each mouse was intraperitoneally injected with 50 μg of KLH (KLH:complete Freund's adjuvant (CFA)=1:1 emulsified immune complex) for immunization. On day 15 of the experiment, each mouse was intraperitoneally injected with 50 μg of KLH (KLH:incomplete Freund's adjuvant (IFA)=1:1 emulsified immune complex) for a second immunization. Each group was intraperitoneally injected twice a week, and blood samples of about 150 μL were collected from the orbital venous plexus on days 7, 14, 21, and 28. Whole blood was left to stand at room temperature for 1-4 h and centrifuged at 7000 rpm at 4° C. for 10 min to separate serum, and the serum was stored at −80° C. before use.
Mouse serum was separated weekly and assayed by ELISA for the anti-KLH specific IgG level.
A general note: ELISA stands for enzyme-linked immunosorbent assay.

Experiment [2] concerns the target T1, CD40 (Homo sapiens, UniProt P25942). Nature of the experiment: HEK-Blue CD40L reporter gene cell activity of human-rabbit chimeric anti-CD40 antibodies. The class given is cell-based. Further details: host or cells: HEK-Blue CD40L cells. As to conditions: HEK-Blue CD40L cells, 25 ng/mL CD40L + anti-His antibody. How it is done:
HEK-Blue CD40L cells were purchased from Invivogen (Cat. #hkb-cd40). The cells were stably transfected with the human CD40 gene and the NF-kB-mediated SEAP genome. The activation level of the CD40 signaling pathway can be characterized by detecting the secreted SEAP in the supernatant using QUANTI-Blue, the substrate of SEAP. In this experiment, the in vitro antagonist activity of anti-CD40 antibodies was assessed according to IC50 by detecting the activation of HEK-Blue CD40L cells by CD40L. HEK-Blue CD40L cells were cultured in a DMEM medium containing 10% FBS, 100 μg/mL Zeocin and 30 μg/mL Blasticidin and passaged 2-3 times in a week at a ratio of 1:5 or 1:10. During passaging, the medium was pipetted off, and the cell layer was rinsed with 5 mL of 0.25% pancreatin. Then the pancreatin was pipetted off, the cells were digested in an incubator for 3-5 min, and then a fresh medium was added to resuspend cells. 100 μL of cell suspension was added to a 96-well cell culture plate at a density of […]. The medium was DMEM containing 10% FBS, 100 μg/mL Zeocin and 30 μg/mL Blasticidin. Only 100 μL of sterile water was added to the periphery of the 96-well plate. […] The absorbance at 630 nm was measured with a microplate reader (Thermo MultiSkanFc), and IC50 values were calculated and used to assess the in vitro cell activity of the anti-CD40 antibodies.
On the technique in general: Reporter assays use an easily measured gene product as a stand-in for the process of interest.
Target sequence in this assay (P25942 21-277): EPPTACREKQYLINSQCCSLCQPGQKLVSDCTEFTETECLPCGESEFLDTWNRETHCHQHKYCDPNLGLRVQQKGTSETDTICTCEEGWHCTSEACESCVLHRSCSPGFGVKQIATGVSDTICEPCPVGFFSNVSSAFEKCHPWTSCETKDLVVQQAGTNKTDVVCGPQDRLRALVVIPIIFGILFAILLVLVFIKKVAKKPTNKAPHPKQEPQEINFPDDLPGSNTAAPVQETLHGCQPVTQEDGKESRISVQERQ

Experiment [3] addresses T1, CD40. Nature of the experiment: SPR (Biacore) affinity for human CD40. The class given is binding. As to conditions: Human CD40 as mobile phase, antibody captured. Also on record: h-CD40-his; Glu21-Arg193; P25942-1; His; purchased Acrobiosystems Inc. CD0-H5228. How it is done:
The test antibody was affinity-captured on an anti-human Fc chip, and a series of concentrations of His-tagged human or cynomolgus monkey CD40 antigen were allowed to flow over the chip surface. Reaction signals were detected in real time using a Biacore instrument, and thus binding and dissociation curves were obtained. The buffer used in the experiment was HBS-EP+10× buffer solution (Cat. #BR-1006-69, GE) diluted to 1× (pH 7.4) with D. I. Water. Fitting was performed on the data obtained from the experiment using a (1:1) Binding model to obtain affinity values. 9E6-L4H2 and 2F12-L4H2 have similar binding constants for human CD40 to CFZ533, 9E6-L4H2 has a stronger binding affinity for cynomolgus monkey CD40, and 2F12-L4H2 has a slightly weak binding affinity for cynomolgus monkey CD40.
Target sequence in this assay (P25942 21-193): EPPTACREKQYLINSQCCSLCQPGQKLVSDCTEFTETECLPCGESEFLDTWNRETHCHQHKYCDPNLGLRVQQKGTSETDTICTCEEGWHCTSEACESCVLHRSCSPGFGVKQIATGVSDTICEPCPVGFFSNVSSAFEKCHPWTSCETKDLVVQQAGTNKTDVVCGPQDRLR
In general terms: Surface plasmon resonance follows binding to a sensor surface in real time, without labels.

“CFZ533: anti-CD40 antagonistic antibody (iscalimab), positive control; variable regions from U.S. Pat. No. 8,277,810B [reference compound]”: in experiment [1], the “anti-KLH specific IgG level, Day 7” value is 0.04 ± 0.01; the “anti-KLH specific IgG level, Day 14” value was found to be 30.9 ± 10.8; the “anti-KLH specific IgG level, Day 21” value was determined as 845 ± 423; the “anti-KLH specific IgG level, Day 28” value was determined as 3043 ± 1600. For the same substance, the half-inhibitory concentration (IC50) in the experiment with CD40 [2] amounted to 0.272 nM. Also, the Ka in the experiment with CD40 [3] is 688000 M⁻¹ s⁻¹.

As usually defined, the IC50 is the concentration at which inhibition is half-maximal.

Values taken from US20250340661A1, “ANTI CD40 ANTIBODY, ANTIGEN BINDING FRAGMENT AND MEDICAL USE THEREOF” (Jiangsu Hengrui Pharmaceuticals Co., Ltd., priority 2021, published 2025).
